In publication PMC9419992 (Organic letters, 2022):

What was measured:
[1] = biological target: T1, LXRα [NR1H3] ligand binding domain (Homo sapiens, UniProt Q13133); assay: Radioligand binding assay with 3H-T0901317, LXRα ligand binding domain
T1 sequence (Q13133 209-447 limits assumed): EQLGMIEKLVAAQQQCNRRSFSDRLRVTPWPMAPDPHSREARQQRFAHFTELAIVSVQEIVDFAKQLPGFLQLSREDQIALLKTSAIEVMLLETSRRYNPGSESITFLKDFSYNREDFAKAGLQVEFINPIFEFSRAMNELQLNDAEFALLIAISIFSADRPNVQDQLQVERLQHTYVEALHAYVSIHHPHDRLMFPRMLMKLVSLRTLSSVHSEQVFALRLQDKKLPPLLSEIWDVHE

[2] = biological target: T2, LXRβ [NR1H2] ligand binding domain (Homo sapiens, UniProt P55055); assay: Radioligand binding assay with 3H-T0901317, LXRβ ligand binding domain
T2 sequence (P55055 222-460 limits assumed): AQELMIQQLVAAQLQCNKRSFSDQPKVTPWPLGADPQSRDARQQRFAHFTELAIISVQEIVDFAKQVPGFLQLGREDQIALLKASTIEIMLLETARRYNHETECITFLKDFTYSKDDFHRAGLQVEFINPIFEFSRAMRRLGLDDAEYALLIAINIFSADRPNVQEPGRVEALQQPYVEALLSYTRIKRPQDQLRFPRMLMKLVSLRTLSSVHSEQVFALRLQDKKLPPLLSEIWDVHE

[3] = system: ABCA1 expression (LXR target gene) in THP-1 cells; assay: Expression of LXR target gene ABCA1 in THP-1 monocytic cell line; assay type: cell-based, human; conditions: compound at 10 μM

Row | SMILES | Ki [1] [µM] | Ki [2] [µM] | ABCA1 expression [3]
1 | C[C@H](CCCC(C)(C)O)[C@H]1CC[C@H]2[C@@H]3CC=C4C[C@@H](O)CC[C@]4(C)[C@H]3CC[C@]12C [25-hydroxycholesterol] | 4 | 6.9 | increased the expression of ABCA1 as well, albeit at lower levels than T0901317
2 | O=S(=O)(c1ccccc1)N(CC(F)(F)F)c1ccc(C(O)(C(F)(F)F)C(F)(F)F)cc1 [Compound T0901317, T0901317] | – | – | increasing the expression of ABCA1
